{"source": "patent US20130157954A1", "about": "“METHODS FOR TREATMENT OR PROPHYLAXIS OF KIDNEY OR LIVER DYSFUNCTION” (NPS PHARMACEUTICALS, INC., priority 2010, published 2013)", "test": "Example 1: kidney biomarkers (urea nitrogen, creatinine, GFR) in short bowel syndrome patients, every four weeks for 24 weeks; also sorted by >5% change from baseline", "assay_type": "in vivo, Human", "set-up": "CREATININE (RATE BLANKED) Change from Baseline Median / GFR Median / GFR Change from Baseline Median / UREA NITROGEN Median / UREA NITROGEN Change from Baseline Median: unit not given here", "details": "for CREATININE (RATE BLANKED) change from baseline <−5%, number of patients / CREATININE (RATE BLANKED) change from baseline <−5%, percent of patients / CREATININE (RATE BLANKED) change from baseline >5%, number of patients / CREATININE (RATE BLANKED) change from baseline >5%, percent of patients / CREATININE (RATE BLANKED) change from baseline −5% <= and <=5%, number of patients / CREATININE (RATE BLANKED) change from baseline −5% <= and <=5%, percent of patients / GFR change from baseline <−5%, number of patients / GFR change from baseline <−5%, percent of patients / GFR change from baseline >5%, number of patients / GFR change from baseline >5%, percent of patients / GFR change from baseline −5% <= and <=5%, number of patients / GFR change from baseline −5% <= and <=5%, percent of patients / UREA NITROGEN change from baseline <−5%, number of patients / UREA NITROGEN change from baseline <−5%, percent of patients / UREA NITROGEN change from baseline >5%, number of patients / UREA NITROGEN change from baseline >5%, percent of patients / UREA NITROGEN change from baseline −5% <= and <=5%, number of patients / UREA NITROGEN change from baseline −5% <= and <=5%, percent of patients: 0.1 mg/kg/day", "method": "Human patients with short bowel syndrome were divided into three groups: a control group (16 total individuals) to receive placebo, an experimental group (35 total individuals) to receive teduglutide at 0.05 mg/kg/day throughout the study, and an experimental group (32 total individuals) to receive teduglutide at 0.1 mg/kg/day throughout the study. Patients were treated by subcutaneous injection of placebo or the appropriate dose of teduglutide. As individuals with short bowel syndrome are likely to experience associated liver and kidney disease, known biomarkers of liver and kidney function were monitored every four weeks, for 24 weeks. The liver biomarkers tested included total bilirubin, ALT and AST and ALP. The kidney biomarkers tested included urea nitrogen, creatinine and GFR. Before administration of placebo or teduglutide, diagnostic biomarker levels were tested to establish a baseline for each individual.\nTo visualize the effect of GLP-2 on the levels of the diagnostic biomarkers, the average change from baseline was calculated for the placebo and teduglutide treated groups for each visit after a baseline was established. The average change from baseline of each group is depicted in FIGS. 1-7. The numerical figures for each diagnostic biomarker at each time point are depicted in Table 1.\nThe raw data for this sorting is reproduced in Table 2 below."}
{"smiles": "CC[C@H](C)[C@H](NC(=O)[C@H](Cc1ccccc1)NC(=O)[C@H](CC(=O)O)NC(=O)[C@H](CCCNC(=N)N)NC(=O)[C@H](C)NC(=O)[C@H](C)NC(=O)[C@H](CC(C)C)NC(=O)[C@H](CC(N)=O)NC(=O)[C@H](CC(=O)O)NC(=O)[C@H](CC(C)C)NC(=O)[C@@H](NC(=O)[C@@H](NC(=O)[C@H](CC(N)=O)NC(=O)[C@H](CCSC)NC(=O)[C@H](CCC(=O)O)NC(=O)[C@H](CC(=O)O)NC(=O)[C@H](CO)NC(=O)[C@H](Cc1ccccc1)NC(=O)[C@H](CO)NC(=O)CNC(=O)[C@H](CC(=O)O)NC(=O)CNC(=O)[C@@H](N)Cc1c[nH]cn1)[C@@H](C)O)[C@@H](C)CC)C(=O)N[C@@H](CC(N)=O)C(=O)N[C@@H](Cc1c[nH]c2ccccc12)C(=O)N[C@@H](CC(C)C)C(=O)N[C@H](C(=O)N[C@@H](CCC(N)=O)C(=O)N[C@H](C(=O)N[C@@H](CCCCN)C(=O)N[C@H](C(=O)N[C@H](C(=O)N[C@@H](CC(=O)O)C(=O)O)[C@@H](C)O)[C@@H](C)CC)[C@@H](C)O)[C@@H](C)CC", "note": "[teduglutide]", "values": [{"measurement": "CREATININE (RATE BLANKED) Change from Baseline Median", "setting": "0.10 mg/kg/day, DW4", "value": "−0.5"}, {"measurement": "CREATININE (RATE BLANKED) Median", "setting": "0.10 mg/kg/day, DW4", "value": 83, "unit": "µmol/L"}, {"measurement": "GFR Change from Baseline Median", "setting": "0.10 mg/kg/day, DW4", "value": 3.1}, {"measurement": "UREA NITROGEN Change from Baseline Median", "setting": "0.10 mg/kg/day, DW4", "value": 0.2}, {"measurement": "UREA NITROGEN Median", "setting": "0.10 mg/kg/day, DW4", "value": 6.3}, {"measurement": "CREATININE (RATE BLANKED) Change from Baseline Median", "setting": "0.10 mg/kg/day, DW8", "value": 0.0}, {"measurement": "CREATININE (RATE BLANKED) Median", "setting": "0.10 mg/kg/day, DW8", "value": 86, "unit": "µmol/L"}, {"measurement": "GFR Change from Baseline Median", "setting": "0.10 mg/kg/day, DW8", "value": 0.2}, {"measurement": "UREA NITROGEN Change from Baseline Median", "setting": "0.10 mg/kg/day, DW8", "value": 0.1}, {"measurement": "UREA NITROGEN Median", "setting": "0.10 mg/kg/day, DW8", "value": 6.4}, {"measurement": "CREATININE (RATE BLANKED) Change from Baseline Median", "setting": "0.10 mg/kg/day, DW12", "value": 6.5}, {"measurement": "GFR Change from Baseline Median", "setting": "0.10 mg/kg/day, DW12", "value": "−0.5"}, {"measurement": "UREA NITROGEN Change from Baseline Median", "setting": "0.10 mg/kg/day, DW12", "value": 0.0}, {"measurement": "UREA NITROGEN Median", "setting": "0.10 mg/kg/day, DW12", "value": 5.9}, {"measurement": "CREATININE (RATE BLANKED) Change from Baseline Median", "setting": "0.10 mg/kg/day, DW16", "value": 0.0}, {"measurement": "GFR Change from Baseline Median", "setting": "0.10 mg/kg/day, DW16", "value": 1.1}, {"measurement": "UREA NITROGEN Change from Baseline Median", "setting": "0.10 mg/kg/day, DW16", "value": 0.0}, {"measurement": "UREA NITROGEN Median", "setting": "0.10 mg/kg/day, DW16", "value": 6.1}, {"measurement": "CREATININE (RATE BLANKED) Change from Baseline Median", "setting": "0.10 mg/kg/day, DW20", "value": 0.0}, {"measurement": "CREATININE (RATE BLANKED) Median", "setting": "0.10 mg/kg/day, DW20", "value": 88, "unit": "µmol/L"}, {"measurement": "GFR Change from Baseline Median", "setting": "0.10 mg/kg/day, DW20", "value": 1.5}, {"measurement": "UREA NITROGEN Change from Baseline Mean (SD)", "setting": "0.10 mg/kg/day, DW20", "value": "−0.0 (1.60)"}, {"measurement": "UREA NITROGEN Change from Baseline Median", "setting": "0.10 mg/kg/day, DW20", "value": "−0.1"}, {"measurement": "UREA NITROGEN Median", "setting": "0.10 mg/kg/day, DW20", "value": 6.0}, {"measurement": "CREATININE (RATE BLANKED) Change from Baseline Median", "setting": "0.10 mg/kg/day, DW 24", "value": 0.0}, {"measurement": "CREATININE (RATE BLANKED) Median", "setting": "0.10 mg/kg/day, DW 24", "value": 81, "unit": "µmol/L"}, {"measurement": "GFR Change from Baseline Median", "setting": "0.10 mg/kg/day, DW 24", "value": 2.3}, {"measurement": "UREA NITROGEN Change from Baseline Median", "setting": "0.10 mg/kg/day, DW 24", "value": 0.3}, {"measurement": "UREA NITROGEN Median", "setting": "0.10 mg/kg/day, DW 24", "value": 5.9}, {"measurement": "CREATININE (RATE BLANKED) change from baseline <−5%, number of patients", "setting": "week 4", "value": 12}, {"measurement": "CREATININE (RATE BLANKED) change from baseline <−5%, percent of patients", "setting": "week 4", "value": "(37.5%)"}, {"measurement": "CREATININE (RATE BLANKED) change from baseline >5%, number of patients", "setting": "week 4", "value": 7}, {"measurement": "CREATININE (RATE BLANKED) change from baseline >5%, percent of patients", "setting": "week 4", "value": "(21.9%)"}, {"measurement": "CREATININE (RATE BLANKED) change from baseline −5% <= and <=5%, number of patients", "setting": "week 4", "value": 13}, {"measurement": "CREATININE (RATE BLANKED) change from baseline −5% <= and <=5%, percent of patients", "setting": "week 4", "value": "(40.6%)"}, {"measurement": "GFR change from baseline <−5%, number of patients", "setting": "week 4", "value": 7}, {"measurement": "GFR change from baseline <−5%, percent of patients", "setting": "week 4", "value": "(21.9%)"}, {"measurement": "GFR change from baseline >5%, number of patients", "setting": "week 4", "value": 14}, {"measurement": "GFR change from baseline >5%, percent of patients", "setting": "week 4", "value": "(43.8%)"}, {"measurement": "GFR change from baseline −5% <= and <=5%, number of patients", "setting": "week 4", "value": 11}, {"measurement": "GFR change from baseline −5% <= and <=5%, percent of patients", "setting": "week 4", "value": "(34.4%)"}, {"measurement": "UREA NITROGEN change from baseline <−5%, number of patients", "setting": "week 4", "value": 10}, {"measurement": "UREA NITROGEN change from baseline <−5%, percent of patients", "setting": "week 4", "value": "(31.3%)"}, {"measurement": "UREA NITROGEN change from baseline >5%, number of patients", "setting": "week 4", "value": 15}, {"measurement": "UREA NITROGEN change from baseline >5%, percent of patients", "setting": "week 4", "value": "(46.9%)"}, {"measurement": "UREA NITROGEN change from baseline −5% <= and <=5%, number of patients", "setting": "week 4", "value": 7}, {"measurement": "UREA NITROGEN change from baseline −5% <= and <=5%, percent of patients", "setting": "week 4", "value": "(21.9%)"}, {"measurement": "CREATININE (RATE BLANKED) change from baseline <−5%, number of patients", "setting": "week 8", "value": 8}, {"measurement": "CREATININE (RATE BLANKED) change from baseline <−5%, percent of patients", "setting": "week 8", "value": "(25.0%)"}, {"measurement": "CREATININE (RATE BLANKED) change from baseline >5%, number of patients", "setting": "week 8", "value": 13}, {"measurement": "CREATININE (RATE BLANKED) change from baseline >5%, percent of patients", "setting": "week 8", "value": "(40.6%)"}, {"measurement": "CREATININE (RATE BLANKED) change from baseline −5% <= and <=5%, number of patients", "setting": "week 8", "value": 10}, {"measurement": "CREATININE (RATE BLANKED) change from baseline −5% <= and <=5%, percent of patients", "setting": "week 8", "value": "(31.3%)"}, {"measurement": "GFR change from baseline <−5%, number of patients", "setting": "week 8", "value": 9}, {"measurement": "GFR change from baseline <−5%, percent of patients", "setting": "week 8", "value": "(28.1%)"}, {"measurement": "GFR change from baseline >5%, number of patients", "setting": "week 8", "value": 9}, {"measurement": "GFR change from baseline >5%, percent of patients", "setting": "week 8", "value": "(28.1%)"}, {"measurement": "GFR change from baseline −5% <= and <=5%, number of patients", "setting": "week 8", "value": 13}, {"measurement": "GFR change from baseline −5% <= and <=5%, percent of patients", "setting": "week 8", "value": "(40.6%)"}, {"measurement": "UREA NITROGEN change from baseline <−5%, number of patients", "setting": "week 8", "value": 9}, {"measurement": "UREA NITROGEN change from baseline <−5%, percent of patients", "setting": "week 8", "value": "(28.1%)"}, {"measurement": "UREA NITROGEN change from baseline >5%, number of patients", "setting": "week 8", "value": 15}, {"measurement": "UREA NITROGEN change from baseline >5%, percent of patients", "setting": "week 8", "value": "(46.9%)"}, {"measurement": "UREA NITROGEN change from baseline −5% <= and <=5%, number of patients", "setting": "week 8", "value": 7}, {"measurement": "UREA NITROGEN change from baseline −5% <= and <=5%, percent of patients", "setting": "week 8", "value": "(21.9%)"}, {"measurement": "CREATININE (RATE BLANKED) change from baseline <−5%, number of patients", "setting": "week 12", "value": 9}, {"measurement": "CREATININE (RATE BLANKED) change from baseline <−5%, percent of patients", "setting": "week 12", "value": "(28.1%)"}, {"measurement": "CREATININE (RATE BLANKED) change from baseline >5%, number of patients", "setting": "week 12", "value": 17}, {"measurement": "CREATININE (RATE BLANKED) change from baseline >5%, percent of patients", "setting": "week 12", "value": "(53.1%)"}]}
